Reference: PubChem BioAssay (NCI)
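Results reflect a 48-hour exposure of cells in 96-well plates to compound at five concentrations. TGI marks complete inhibition of growth.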

Experiments:
Assay in all cases: growth of human tumour cells (NCI), 48 h
[1] = system: SK-OV-3 ovarian
[2] = system: IGROV1 ovarian
[3] = system: OVCAR-5 ovarian
[4] = system: SN12C renal
[5] = system: HCT-15 colon
[6] = system: NCI-H226 lung
[7] = system: SF-539 CNS
[8] = system: MDA-MB-435
[9] = system: NCI/ADR-RES ovarian
[10] = system: KM12 colon
[11] = system: HT29 colon
[12] = system: PC-3 prostate
[13] = system: OVCAR-8 ovarian
[14] = system: UACC-62 melanoma
[15] = system: LOX IMVI melanoma
[16] = system: HL-60(TB) leukemia
[17] = system: MDA-MB-231 breast
[18] = system: HOP-92 NSCLC
[19] = system: HCC-2998 colon
[20] = system: HOP-62 NSCLC
[21] = system: HCT-116 colon
[22] = system: A549 NSCLC
[23] = system: ACHN renal
[24] = system: M14 melanoma
[25] = system: MCF7 breast
[26] = system: NCI-H460 lung
[27] = system: OVCAR-4 ovarian
[28] = system: NCI-H522 lung
[29] = system: SK-MEL-28 melanoma
[30] = system: NCI-H23 lung
[31] = system: SK-MEL-5 melanoma
[32] = system: OVCAR-3 ovarian
[33] = system: UACC-257 melanoma
[34] = system: SW-620 colon
[35] = system: SK-MEL-2 melanoma
[36] = system: SNB-19 CNS
[37] = system: MDA-N
[38] = system: 786-0 renal
[39] = system: UO-31 renal
[40] = system: MALME-3M melanoma
[41] = system: BT-549 breast
[42] = system: T-47D breast
[43] = system: RPMI-8226 leukemia
[44] = system: SF-268 CNS
[45] = system: SF-295 CNS
[46] = system: CAKI-1 renal
[47] = system: U251 CNS
[48] = system: MOLT-4 leukemia
[49] = system: CCRF-CEM leukemia
[50] = system: HS 578T breast
[51] = system: SNB-75 CNS
[52] = system: COLO 205 colon
[53] = system: EKVX NSCLC
[54] = system: K-562 leukemia
[55] = system: DU-145 prostate
[56] = system: SR leukemia
[57] = system: RXF 393 renal
[58] = system: TK-10 renal
[59] = system: A498 renal

Compound Nn1c(Cc2ccc([N+](=O)[O-])cc2)n[nH]c1=O has a TGI [1] greater than 100 µM, a TGI [2] greater than 100 µM and a TGI [3] greater than 100 µM. The TGI [4] was greater than 100 µM, the TGI [5] was greater than 100 µM and the TGI [6] was greater than 100 µM. It also gave a TGI [7] greater than 100 µM, a TGI [8] greater than 100 µM and a TGI [9] greater than 100 µM. The TGI [10] was greater than 100 µM, the TGI [11] was greater than 100 µM and the TGI [12] was greater than 100 µM. It also gave a TGI [13] greater than 100 µM, a TGI [14] greater than 100 µM and a TGI [15] greater than 100 µM. For the same compound, the TGI [16] was greater than 100 µM, the TGI [17] was greater than 100 µM and the TGI [18] was greater than 100 µM. For the same compound, the TGI [19] was greater than 100 µM, the TGI [20] was greater than 100 µM and the TGI [21] was greater than 100 µM. The TGI [22] was greater than 100 µM, the TGI [23] was greater than 100 µM and the TGI [24] was greater than 100 µM. The TGI [25] was greater than 100 µM, the TGI [26] was greater than 100 µM and the TGI [27] was greater than 100 µM. It also gave a TGI [28] greater than 100 µM, a TGI [29] greater than 100 µM and a TGI [30] greater than 100 µM. The TGI [31] was greater than 100 µM, the TGI [32] was greater than 100 µM and the TGI [33] was greater than 100 µM. The TGI [34] was greater than 100 µM, the TGI [35] was greater than 100 µM and the TGI [36] was greater than 100 µM. The TGI [37] was greater than 100 µM, the TGI [38] was greater than 100 µM and the TGI [39] was greater than 100 µM. The TGI [40] was greater than 100 µM, the TGI [41] was greater than 100 µM and the TGI [42] was greater than 100 µM. It also gave a TGI [43] greater than 100 µM, a TGI [44] greater than 100 µM and a TGI [45] greater than 100 µM. It also gave a TGI [46] greater than 100 µM, a TGI [47] greater than 100 µM and a TGI [48] greater than 100 µM. For the same compound, the TGI [49] was greater than 100 µM, the TGI [50] was greater than 100 µM and the TGI [51] was greater than 100 µM. For the same compound, the TGI [52] was greater than 100 µM, the TGI [53] was greater than 100 µM and the TGI [54] was greater than 100 µM. For the same compound, the TGI [55] was greater than 100 µM and the TGI [56] was greater than 100 µM.

Work on OCCNCNc1nc(NCNCCO)nc(N(CNCCO)CNCCO)n1 yielded a TGI [1] greater than 85.9 µM, a TGI [2] of 49.4 µM and a TGI [3] of 21 µM. The TGI [57] was 31.1 µM, the TGI [4] was 60.8 µM and the TGI [58] was 72.1 µM. For the same compound, the TGI [5] was 61.6 µM, the TGI [6] was 47.1 µM and the TGI [7] was 41.3 µM. For the same compound, the TGI [8] was 35.8 µM, the TGI [9] was 54 µM and the TGI [10] was greater than 59.5 µM. The TGI [11] was 45.8 µM, the TGI [12] was 50 µM and the TGI [13] was 59.5 µM. For the same compound, the TGI [14] was 35.6 µM, the TGI [15] was 40.2 µM and the TGI [16] was 63.8 µM. It also gave a TGI [17] of 52.7 µM, a TGI [18] of 51.1 µM and a TGI [19] of 36.4 µM. It also gave a TGI [20] of 43.2 µM, a TGI [21] of 41.5 µM and a TGI [22] greater than 78.2 µM. For the same compound, the TGI [23] was greater than 68.9 µM, the TGI [59] was 62 µM and the TGI [24] was 36.6 µM. The TGI [25] was greater than 78.9 µM, the TGI [26] was 59.4 µM and the TGI [27] was greater than 65.4 µM. For the same compound, the TGI [28] was 41.3 µM, the TGI [29] was 52.6 µM and the TGI [30] was 46.1 µM. For the same compound, the TGI [31] was 28.5 µM, the TGI [32] was 58.7 µM and the TGI [33] was 40 µM. For the same compound, the TGI [34] was greater than 54 µM, the TGI [35] was 40.9 µM and the TGI [36] was 38.1 µM. The TGI [37] was 38.4 µM, the TGI [38] was 36.5 µM and the TGI [39] was greater than 73.9 µM. For the same compound, the TGI [40] was 33.2 µM, the TGI [41] was 46 µM and the TGI [42] was 61.1 µM. For the same compound, the TGI [43] was greater than 68.2 µM, the TGI [44] was 60.8 µM and the TGI [45] was greater than 61.6 µM. The TGI [46] was 57.7 µM, the TGI [47] was 43.7 µM and the TGI [48] was 67.7 µM. It also gave a TGI [49] greater than 69.7 µM, a TGI [50] greater than 78.8 µM and a TGI [51] of 50.6 µM. It also gave a TGI [52] of 30.8 µM, a TGI [53] of 57 µM and a TGI [54] of 50.3 µM. It also gave a TGI [55] of 44.3 µM.
